Data: patent publication US20160256472A1, “COMPOSITIONS AND METHODS OF ADMINISTERING SAME” (PALMAYA PTY LTD, priority 2013, published 2016)
“Also recorded” adds a separate entry of the source.

Columns and labels:
[1] = test system: craving and craving anxiety for smoking, alcohol or drug use; experiment: Pilot study case reports: craving and craving anxiety after rapid (nasal/sublingual) delivery of micro-doses; type: in vivo, human; details: Example 7: bupropion 250 micrograms added, nasal delivery
Procedure: About 40-50 minutes later the craving anxiety for smoking started to climb.
Their craving for smoking and alcohol were linked making smoking more severe during times of alcohol use.
This profound change depends on them giving themself one or two doses before getting out of bed in the morning as this is the most severe craving in the day.
They averaged 20 doses per day.

[2] = oral dosage form, 50 mg per day; cited from earlier work
smoking addiction = details: Cochrane review; cited from earlier work
[3] = Oral naltrexone absorption and presence in blood stream; details: standard oral administration, one off dose of 50 mg per day
Source text: As with all addictions, craving anxiety builds and is then reduced at the time of drug use or when the habit is repeated. The cycle then repeats itself. Craving may present itself with anxiety or in some cases presents itself where the individual places himself in a risky situation or searches for the substance or opportunity for the substance or event.

[4] = in vivo; cited from earlier work
[5] = cited from earlier work

For `CC(NC(C)(C)C)C(=O)c1cccc(Cl)c1` (stereo not shown) [bupropion], the “effect of bupropion on the effectiveness of the flumazenil/naltrexone combination” value [1] was “maximise the effectiveness”.

For `O=C1CC[C@@]2(O)[C@H]3Cc4ccc(O)c5c4[C@@]2(CCN3CC2CC2)[C@H]1O5` [naltrexone], the “time after administration at which oral naltrexone disappears from the blood stream” value [2] is given as “six”, the “efficacy in smoking addiction / smoking cessation” value (smoking addiction) is given as “does not give any evidence of smoking cessation; also recorded: not effective” and the “time naltrexone is undetectable in the blood stream” value [3] is given as 18 hours a day.

In the case of `CCOC(=O)c1ncn2c1CN(C)C(=O)c1cc(F)ccc1-2` [flumazenil], the half-life [4] is listed as “less than one”, the side effects ([5]; intravenous flumazenil, literature) is listed as “panic attacks or fitting” and the safe dose ([5]; intravenous injection, recorded by Mims) is listed as “up to 100 mg”.
